# Molecular target: T1, rat NaP2b (SLC34A2) (Rattus norvegicus, UniProt Q9JJ09)
# T1 construct: host or cells: HEK293
# T1 sequence (Q9JJ09 1-695): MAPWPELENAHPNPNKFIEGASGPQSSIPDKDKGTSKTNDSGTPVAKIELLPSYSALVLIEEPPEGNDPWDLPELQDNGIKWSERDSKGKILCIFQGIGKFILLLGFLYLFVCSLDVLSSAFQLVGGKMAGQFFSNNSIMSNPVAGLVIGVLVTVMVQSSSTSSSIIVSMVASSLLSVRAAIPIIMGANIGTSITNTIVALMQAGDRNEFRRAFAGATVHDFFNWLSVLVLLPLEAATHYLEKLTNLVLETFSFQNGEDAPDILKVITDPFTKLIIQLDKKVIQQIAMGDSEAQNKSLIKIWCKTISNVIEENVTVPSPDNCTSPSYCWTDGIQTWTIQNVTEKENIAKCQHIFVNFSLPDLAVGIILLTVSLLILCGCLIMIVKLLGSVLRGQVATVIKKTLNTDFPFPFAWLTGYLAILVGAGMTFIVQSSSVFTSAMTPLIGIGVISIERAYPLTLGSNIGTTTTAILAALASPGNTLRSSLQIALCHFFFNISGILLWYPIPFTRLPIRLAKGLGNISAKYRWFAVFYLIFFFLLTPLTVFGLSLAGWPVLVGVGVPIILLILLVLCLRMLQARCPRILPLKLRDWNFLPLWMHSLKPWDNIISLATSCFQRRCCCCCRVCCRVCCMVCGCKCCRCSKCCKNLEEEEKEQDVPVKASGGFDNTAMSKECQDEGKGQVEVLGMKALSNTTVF
# Assay: Inhibition of NaP2b-mediated Pi (33P) uptake in transfected HEK293 cells, rat NaP2b
# Assay type: cell-based
# Settings: 33P Pi uptake, 0.1 mM phosphate, value given as pIC50 range
# Description: HEK293 cells were obtained from the American Type Culture collection and propagated per their instructions. […] The sequence of the human protein was mutated to insert a threonine after residue 37, and to introduce a N39D mutation.
# Cells were seeded into 96-well plates at 25,000 cells/well and cultured overnight. Lipofectamine 2000 (Invitrogen) was used to introduce the NaP2b cDNA, and the cells were allowed to approach confluence during a second overnight incubation. […] Each compound was tested at twelve concentrations ranging from 0.1 nM to 30 uM. Assays were run in duplicate.
# Cells were lysed by addition of 20 μL 0.1% Tween 80 followed by 100 μL scintillation fluid, and counted using a TopCount (Perkin Elmer).
# pIC50 (the negative log of the IC50) values of the test compounds were calculated using GraphPad Prism.
row,SMILES,IC50
1,O=C(O)CCSCc1cccc(C(=O)Nc2ccc(N3CCCCC3)cc2-c2cc(C(=O)NCc3ccccc3C(F)(F)F)ccn2)c1 [Example 1.48],1 to 7.94 µM
2,Cc1ccc(CNC(=O)c2ccnc(-c3cc(N4CCCCC4)ccc3NC(=O)c3cccc(CSCCC(=O)O)c3)c2)cc1C [Example 1.49],1 to 7.94 µM
3,"Cc1cccc(CNc2cc(-c3cc(N4CCCCC4)ccc3NC(=O)c3cccc(CSCCC(=O)O)c3)ncn2)c1 [Example 3.2, 3-((3-((4-(Piperidin-1-yl)-2-(6-((3-methylbenzyl)amino)pyrimidin-4-yl)phenyl)carbamoyl)benzyl)thio)propanoic acid]",10 to 31.6 µM
4,"O=C(O)CCSCc1cccc(C(=O)Nc2ccc(N3CCCCC3)cc2-c2cc(NCCc3cccc(C(F)(F)F)c3)ncn2)c1 [Example 3.3, 3-((3-((4-(Piperidin-1-yl)-2-(6-((3-(trifluoromethyl)phenethyl)amino)pyrimidin-4-yl)phenyl)carbamoyl)benzyl)thio)propanoic acid]",10 to 31.6 µM
5,"Cc1ccc(CNc2cc(-c3cc(N4CCCCC4)ccc3NC(=O)c3cccc(CSCCC(=O)O)c3)ncn2)cc1C [Example 3.4, 3-((3-((2-(6-((3,4-Dimethylbenzyl)amino)pyrimidin-4-yl)-4-(piperidin-1-yl)phenyl)carbamoyl)benzyl)thio)propanoic acid]",10 to 31.6 µM
6,"O=C(O)CCSCc1cccc(C(=O)Nc2ccc(N3CCCCC3)cc2-c2cc(NCc3ccc(Cl)c(C(F)(F)F)c3)ncn2)c1 [Example 3.5, 3-((3-((2-(6-((4-Chloro-3-(trifluoromethyl)benzyl)amino)pyrimidin-4-yl)-4-(piperidin-1-yl)phenyl)carbamoyl)benzyl)thio)propanoic acid]",1 to 7.94 µM
7,"O=C(O)CCSCc1cccc(C(=O)Nc2ccc(N3CCCCC3)cc2-c2cc(OCc3cccc(C(F)(F)F)c3)ncn2)c1 [Example 3.8, 3-((3-((4-(Piperidin-1-yl)-2-(6-((3-(trifluoromethyl)benzyl)oxy)pyrimidin-4-yl)phenyl)carbamoyl)benzyl)thio)propanoic acid]",10 to 31.6 µM
8,"O=C(O)CCSCc1cccc(C(=O)Nc2ccc(N3CCCCC3)cc2-c2cc(Oc3cccc(C(F)(F)F)c3)ncn2)c1 [Example 3.9, 3-((3-((4-(Piperidin-1-yl)-2-(6-(3-(trifluoromethyl)phenoxy)pyrimidin-4-yl)phenyl)carbamoyl)benzyl)thio)propanoic acid]",10 to 31.6 µM
9,"CCN(CC)CCN(C)C(=O)c1cccc(C(=O)Nc2ccc(N3CCCCC3)cc2-c2cc(C(=O)NCc3cccc(C(F)(F)F)c3)ccn2)c1 [Example 4.1, N1-(2-(Diethylamino)ethyl)-N1-methyl-N3-(4-(piperidin-1-yl)-2-(4-((3-(trifluoromethyl)benzyl)carbamoyl)pyridin-2-yl)phenyl)isophthalamide]",10 to 31.6 µM
10,"COCCNC(=O)CCN(C)C(=O)c1cccc(C(=O)Nc2ccc(N3CCCCC3)cc2-c2cc(C(=O)NCc3cccc(C(F)(F)F)c3)ccn2)c1 [Example 4.2, N1-(2-(4-((3-(Trifluoromethyl)benzyl)carbamoyl)pyridin-2-yl)-4-(piperidin-1-yl)phenyl)-N3-(3-(2-methoxyethylamino)-3-oxopropyl)-N3-methylisophthalamide]",1 to 7.94 µM
11,"CN(CCOCCO)C(=O)c1cccc(C(=O)Nc2ccc(N3CCCCC3)cc2-c2cc(C(=O)NCc3cccc(C(F)(F)F)c3)ccn2)c1 [Example 4.3, N1-(2-(2-Hydroxyethoxy)ethyl)-N1-methyl-N3-(4-(piperidin-1-yl)-2-(4-((3-(trifluoromethyl)benzyl)carbamoyl)pyridin-2-yl)phenyl)isophthalamide]",1 to 7.94 µM
12,"CN(CCN1CCN(C(=O)OC(C)(C)C)CC1)C(=O)c1cccc(C(=O)Nc2ccc(N3CCCCC3)cc2-c2cc(C(=O)NCc3cccc(C(F)(F)F)c3)ccn2)c1 [Example 4.5, Tert-butyl 4-(2-(N-methyl-3-((4-(piperidin-1-yl)-2-(4-((3-(trifluoromethyl)benzyl)carbamoyl)pyridin-2-yl)phenyl)carbamoyl)benzamido)ethyl)piperazine-1-carboxylate]",1 to 7.94 µM
13,"CC(=O)N1CCN(C(=O)c2cccc(C(=O)Nc3ccc(N4CCCCC4)cc3-c3cc(C(=O)NCc4cccc(C(F)(F)F)c4)ccn3)c2)CC1 [Example 4.6, 2-(2-(3-(4-Acetylpiperazine-1-carbonyl)benzamido)-5-(piperidin-1-yl)phenyl)-N-(3-(trifluoromethyl)benzyl)isonicotinamide]",10 to 31.6 µM
14,"CC(=O)NC1CCN(C(=O)c2cccc(C(=O)Nc3ccc(N4CCCCC4)cc3-c3cc(C(=O)NCc4cccc(C(F)(F)F)c4)ccn3)c2)CC1 [Example 4.7, 2-(2-(3-(4-Acetamidopiperidine-1-carbonyl)benzamido)-5-(piperidin-1-yl)phenyl)-N-(3-(trifluoromethyl)benzyl)isonicotinamide]",10 to 31.6 µM
15,"CCN(CCN1CCOCC1)C(=O)c1cccc(C(=O)Nc2ccc(N3CCCCC3)cc2-c2cc(C(=O)NCc3cccc(C(F)(F)F)c3)ccn2)c1 [Example 4.8, N1-Ethyl-N1-(2-morpholinoethyl)-N3-(4-(piperidin-1-yl)-2-(4-((3-(trifluoromethyl)benzyl)carbamoyl)pyridin-2-yl)phenyl)isophthalamide]",1 to 7.94 µM
16,"CC(=O)N[C@H]1CCN(C(=O)c2cccc(C(=O)Nc3ccc(N4CCCCC4)cc3-c3cc(C(=O)NCc4cccc(C(F)(F)F)c4)ccn3)c2)C1 [Example 4.9, (S)-2-(2-(3-(3-Acetamidopyrrolidine-1-carbonyl)benzamido)-5-(piperidin-1-yl)phenyl)-N-(3-(trifluoromethyl)benzyl)isonicotinamide]",10 to 31.6 µM
17,"O=C(NCc1cccc(C(F)(F)F)c1)c1ccnc(-c2cc(N3CCCCC3)ccc2NC(=O)c2cccc(C(=O)N(CCN3CCOCC3)C3CC3)c2)c1 [Example 4.11, N1-Cyclopropyl-N1-(2-morpholinoethyl)-N3-(4-(piperidin-1-yl)-2-(4-((3-(trifluoromethyl)benzyl)carbamoyl)pyridin-2-yl)phenyl)isophthalamide]",1 to 7.94 µM
18,"O=C(NCc1cccc(C(F)(F)F)c1)c1ccnc(-c2cc(N3CCCCC3)ccc2NC(=O)c2cccc(C(=O)N(CCN3CCOCC3)Cc3ccccc3)c2)c1 [Example 4.12, N1-Benzyl-N1-(2-morpholinoethyl)-N3-(4-(piperidin-1-yl)-2-(4-((3-(trifluoromethyl)benzyl)carbamoyl)pyridin-2-yl)phenyl)isophthalamide]",1 to 7.94 µM
19,"CC(=O)N1CCCN(C(=O)c2cccc(C(=O)Nc3ccc(N4CCCCC4)cc3-c3cc(C(=O)NCc4cccc(C(F)(F)F)c4)ccn3)c2)CC1 [Example 4.13, 2-(2-(3-(4-Acetyl-1,4-diazepane-1-carbonyl)benzamido)-5-(piperidin-1-yl)phenyl)-N-(3-(trifluoromethyl)benzyl)isonicotinamide]",1 to 7.94 µM
20,"COCCNC(=O)[C@H]1CCCN(C(=O)c2cccc(C(=O)Nc3ccc(N4CCCCC4)cc3-c3cc(C(=O)NCc4cccc(C(F)(F)F)c4)ccn3)c2)C1 [Example 4.14, (S)-2-(2-(3-(3-((2-Methoxyethyl)carbamoyl)piperidine-1-carbonyl)benzamido)-5-(piperidin-1-yl)phenyl)-N-(3-(trifluoromethyl)benzyl)isonicotinamide]",1 to 7.94 µM
21,"COCCNC(=O)[C@@H]1CCCN(C(=O)c2cccc(C(=O)Nc3ccc(N4CCCCC4)cc3-c3cc(C(=O)NCc4cccc(C(F)(F)F)c4)ccn3)c2)C1 [Example 4.15, (R)-2-(2-(3-(3-((2-Methoxyethyl)carbamoyl)piperidine-1-carbonyl)benzamido)-5-(piperidin-1-yl)phenyl)-N-(3-(trifluoromethyl)benzyl)isonicotinamide]",1 to 7.94 µM
22,"O=C(CCSCc1cccc(C(=O)Nc2ccc(N3CCCCC3)cc2-c2cc(C(=O)NCc3cccc(C(F)(F)F)c3)ccn2)c1)NCCN1CCOCC1 [Example 4.16, 2-(2-(3-(((3-((2-Morpholinoethyl)amino)-3-oxopropyl)thio)methyl)benzamido)-5-(piperidin-1-yl)phenyl)-N-(3-(trifluoromethyl)benzyl)isonicotinamide]",10 to 31.6 µM
23,"COCCNC(=O)CCSCc1cccc(C(=O)Nc2ccc(N3CCCCC3)cc2-c2cc(C(=O)NCc3cccc(C(F)(F)F)c3)ccn2)c1 [Example 4.17, 2-(2-(3-(((3-((2-Methoxyethyl)amino)-3-oxopropyl)thio)methyl)benzamido)-5-(piperidin-1-yl)phenyl)-N-(3-(trifluoromethyl)benzyl)isonicotinamide]",10 to 31.6 µM

# Reference: US20140023611A1 (priority 2010, published 2014)
